# Article PMC8773749, “Combinatorial Virtual Screening Revealed a Novel Scaffold for TNKS Inhibition to Combat Colorectal Cancer” (Biomedicines, 2022)
# Assays:
# TNKS-1 [1] = target: T1, TNKS-1 (Homo sapiens, UniProt O95271); experiment: TNKS-1 histone ribosylation colorimetric assay (BPS Bioscience kit); format: biochemical
# TNKS-1 [2] = target: T1, TNKS-1; experiment: TNKS-1 histone ribosylation colorimetric assay, single concentration […]; format: biochemical
# T1 sequence (O95271 whole entry): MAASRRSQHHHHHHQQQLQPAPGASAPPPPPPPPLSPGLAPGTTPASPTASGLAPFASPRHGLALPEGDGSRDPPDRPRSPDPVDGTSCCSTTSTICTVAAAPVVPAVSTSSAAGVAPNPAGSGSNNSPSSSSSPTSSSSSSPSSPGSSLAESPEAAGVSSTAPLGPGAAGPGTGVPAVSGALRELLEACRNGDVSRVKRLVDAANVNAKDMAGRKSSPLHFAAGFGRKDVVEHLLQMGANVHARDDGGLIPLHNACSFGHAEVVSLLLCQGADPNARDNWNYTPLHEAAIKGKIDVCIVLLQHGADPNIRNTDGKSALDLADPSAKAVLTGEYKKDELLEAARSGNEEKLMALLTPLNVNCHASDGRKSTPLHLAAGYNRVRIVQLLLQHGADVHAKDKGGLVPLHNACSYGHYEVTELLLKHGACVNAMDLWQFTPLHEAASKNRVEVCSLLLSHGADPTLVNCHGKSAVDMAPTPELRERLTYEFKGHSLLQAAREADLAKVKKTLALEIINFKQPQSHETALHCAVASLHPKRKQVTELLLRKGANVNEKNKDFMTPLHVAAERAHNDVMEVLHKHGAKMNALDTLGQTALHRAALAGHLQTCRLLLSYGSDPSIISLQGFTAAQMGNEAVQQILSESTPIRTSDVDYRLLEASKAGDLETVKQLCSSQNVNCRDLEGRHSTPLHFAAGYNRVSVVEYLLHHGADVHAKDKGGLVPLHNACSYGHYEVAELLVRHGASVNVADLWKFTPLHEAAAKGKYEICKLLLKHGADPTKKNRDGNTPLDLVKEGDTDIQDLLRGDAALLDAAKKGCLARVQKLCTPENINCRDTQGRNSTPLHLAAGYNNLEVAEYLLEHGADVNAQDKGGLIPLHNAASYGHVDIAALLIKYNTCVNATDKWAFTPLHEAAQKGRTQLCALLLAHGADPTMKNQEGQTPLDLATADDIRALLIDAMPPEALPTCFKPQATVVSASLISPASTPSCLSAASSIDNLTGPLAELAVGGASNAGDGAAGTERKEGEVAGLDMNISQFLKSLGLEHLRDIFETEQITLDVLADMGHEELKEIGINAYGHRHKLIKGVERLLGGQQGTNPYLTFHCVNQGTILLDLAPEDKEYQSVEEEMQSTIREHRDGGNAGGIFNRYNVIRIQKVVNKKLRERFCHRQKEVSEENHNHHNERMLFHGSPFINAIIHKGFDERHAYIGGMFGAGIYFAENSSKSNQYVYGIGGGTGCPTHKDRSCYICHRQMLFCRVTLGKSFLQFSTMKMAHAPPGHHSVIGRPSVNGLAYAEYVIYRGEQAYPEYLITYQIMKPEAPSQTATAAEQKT
Structure (SMILES),IC50 (TNKS-1 [1]),% of Inhibition at 10 μM / TNKS-1 ^c (TNKS-1 [2])
Cc1c(Cl)c2ccc(N(C)C)cc2[nH]c1=O [NSC319963],21.9 nM,–
CN(C)c1ccc2c3c(c(=O)oc2c1)CCC3 [NSC315247],–,60.07
CN(C)c1ccc2c(c1)oc(=O)c1ccccc12 [NSC102371],–,88.54
Cc1c(C)c2ccc(N(C)C)cc2[nH]c1=O [NSC295092],66.1 nM,–
COc1ccc(-c2cc3ccccc3c(=O)o2)cc1 [NSC123012],–,50.92
